Measured values: patent publication US8946405B2, “Controlled release from solid supports” (Prolynx LLC, priority 2010, dated 2015)

Columns and labels:
[1] = Release of Nε-2,4-dinitrophenyl-L-lysine from DNP-Lys carbamates (β-elimination), HPLC; format: physicochemical; details: after 5 days at 37° C. and pH 7.4
Description: A series of linker scaffolds having a range of functional groups as potential pKa modulators (substituted aromatics, ketones, nitriles, sulfones) were designed, prepared and linked via carbamate bonds to Ne-2,4-dinitrophenyl-L-lysine (Ne-DNP-Lys) for evaluation of release rates. DNP-Lys was chosen as the released moiety as is water soluble and is a strong chromophore to permit HPLC-UV analysis.
The rates of release of Nε-2,4-dinitrophenyl-L-lysine from these compounds were determined at pH 7.4 or pH 8.3, 37° C., by HPLC analysis. Kinetic analyses of the release reactions were performed by HPLC (C18; linear MeOH/water+0.5% HOAc gradient) using a UV/vis monitor at 350 nm. The areas under the Lys(DNP) (“P”) and starting material (“S”) peaks were integrated to determine extent of reaction (“R”) as R=P/(S+P). Reaction rates were calculated from the slope the line obtained by linear regression analysis of a plot of ln(1-R) versus time.

[2] = Hydrolysis of carbamate in 50% human serum; format: in vitro ADME; details: after 1 week at 37° C.
Text: In general, compared to C—H, a) electron withdrawing groups at R^1 increase the rate; b) alkyl groups at R^5 increase the rate; and c) aryl moieties at R^5 decrease the rate.

O=C(N[C@@H](CCCCNc1ccc([N+](=O)[O-])cc1[N+](=O)[O-])C(=O)O)OCc1ccccc1 [O-benzyl-N—(Nε-2,4-dinitrophenyl-L-lysine)-carbamate]
cleavage (estimated detection limit) [1]: < 0.25%
release of Nε-2,4-dinitrophenyl-L-lysine [1]: no observable release
hydrolysis in 50% human serum [2]: no detectable hydrolysis
